This is an account of results in patent publication US10485746B2, “Synergistic antibacterial effects of magnolia bark extract and L-arginine, Nα-lauroyl ethyl ester on salivary bacteria” (WM. WRIGLEY JR. COMPANY, priority 2015, dated 2019).

≈ marks a conversion by molar mass, not a printed value.

Assay [1] has as its system S. mutans (ATCC No. 25715). Briefly: MIC against S. mutans. The class given is cell-based. As to conditions: Streptococcus mutans, ATCC25715; 48 hours, 37° C., turbidity <0.05 absorbance at 660 nm. From the text: (§1) One method of evaluating the efficacy of LAE and MBE against salivary bacteria is by determining the minimum inhibitory concentration (MIC). One suitable method for determining MIC is described in U.S. Pat. No. 7,470,442, which is herein incorporated by reference. Briefly, chlorhexidine is used as a positive control and sterile water is used as a negative control. Methanol and Tween 80 are used as a solvent for MBE. Tween 80 is the common name for Polysorbate 80. Ninety-six-well microtiter plates are used for this study. Each well contained 5×10^5 CFU/ml of bacteria, serially diluted agents and bacterial growth medium. All bacterial cultures are incubated at 37° C. and stationary. Bacterial growth is estimated spectrophotometrically at 660 nm, after 48 hours.
(§2) S. mutans (ATCC No. 25715), S. sobrinus (ATCC 33478), S. salivarius (ATCC 13419) and F. nucleatum (ATCC No. 10953) were purchased from American Type Culture Center (ATCC, MD). S. mutans, S. sobrinus, and S. salivarius were incubated for 24 hours in Schaedler broth containing 1 ppm vitamin K and 10 ppm hemin. F. nucleatum was incubated anaerobically for 48 hrs. […]
(§3) The MIC of LAE and MBE against the four oral bacteria described supra was determined. The effectiveness of MBE and LAE on total salivary bacteria was evaluated using whole saliva. […]

The subject of assay [2] is S. salivarius (ATCC 13419). Briefly: MIC against S. salivarius. The class given is cell-based. To be noted: Streptococcus salivarius, ATCC13419; 48 hours, 37° C., turbidity <0.05 absorbance at 660 nm.
Excerpt: as §1, §2, §3

The subject of assay [3] is S. sobrinus (ATCC 33478). Nature of the assay: MIC against S. sobrinus. The class given is cell-based. To be noted: Streptococcus sobrinus, ATCC33478; 48 hours, 37° C., turbidity <0.05 absorbance at 660 nm.
Excerpt: as §1, §2, §3

Assay [4] relates to F. nucleatum (ATCC No. 10953). Briefly: MIC against F. nucleatum. Format: cell-based. As to conditions: Fusobacterium nucleatum, ATCC10953; 48 hours, 37° C., turbidity <0.05 absorbance at 660 nm.
Excerpt: as §1, §2, §3

In assay [5] the test system is total salivary bacteria (whole saliva). Nature of the assay: MIC and FIC Index against total salivary bacteria (whole saliva). Format: cell-based, human.
Excerpt: as §1
For testing total salivary bacteria (whole saliva), 30 ml of saliva was collected from a minimum of 3 healthy human volunteers by chewing a standard gum base. The freshly collected saliva was vortexed briefly and directly added to nutrient broth.
A 1% (w/v) solution of MBE powder (95% magnolol, 5% honokiol, Honsea Sunshine Biotech Co., Ltd., Guangzhou, China) in 100% ethanol was prepared, and used in the current example.
LAE-CF (containing 99% pure LAE) was obtained from Vedeqsa of Barcelona, Spain, and used in the current example.
The MIC of LAE and MBE against the four oral bacteria described supra was determined. The effectiveness of MBE and LAE on total salivary bacteria was evaluated using whole saliva.
Chlorhexidine was used as a positive control and sterile water was used as a negative control. MBE was dissolved in ethanol to produce a working solution containing 1% of MBE. It was added to Shaedler broth that contained 10 ppm of Hemin, 1 ppm of Vitamin K and a minimum of 1×10^6 CFU/ml of bacterial strains. […]
Calculation of the FIC is disclosed in U.S. Pat. No. 7,074,447, which is herein incorporated by reference. Briefly, the FIC Index is calculated according to the following formula: FIC=[QA/Qa+QB/Qb] where […]

The test system of assay [6] is S. mutans (ATCC No. 25715). Nature of the assay: MBC against S. mutans. Format: cell-based. To be noted: Streptococcus mutans, ATCC25715; kills at least 99.9% of initial inoculum. As for the experimental part:
(§4) Another method for evaluating the efficacy of LAE and MBE against salivary bacteria is by determining the minimum bactericidal concentration (MBC). One suitable method for determining MBC is described in U.S. Pat. No. 7,470,442. Briefly, the MBC is determined using the 96-well microtiter plate serial dilutions as described above for the MIC test. Serial dilutions of cultures in wells showing no visible growth are performed and 10 microliters of culture are plated in triplicate on blood agar plates. Viable colonies are scored after incubation of the plates for 48 hours at 37° C. For each test bacterium, the number of CFU/ml is determined in the initial inoculum. The MBC is defined as the lowest concentration of a test compound that killed at least 99.9% of the cells present in the initial inoculum. […] The MBC of MBE and LAE against the four oral bacteria described supra was determined using the MBC protocol set forth below. The effectiveness of MBE on total salivary bacteria was evaluated using whole saliva. The MBC was determined by serial dilutions as described above for the MIC test. […] Viable colonies were scored after incubation of the plates for 48 hours at 37° C. For each test bacterium, the number of CFU/ml was determined in the initial inoculum. […]

Assay [7] deals with S. salivarius (ATCC 13419). Nature of the assay: MBC against S. salivarius. The class given is cell-based. To be noted: Streptococcus salivarius, ATCC13419; kills at least 99.9% of initial inoculum. As for the experimental part: as §4
The subject of assay [8] is S. sobrinus (ATCC 33478). Nature of the assay: MBC against S. sobrinus. To be noted: Streptococcus sobrinus, ATCC33478; kills at least 99.9% of initial inoculum. The class given is cell-based. As for the experimental part: as §4
Assay [9] deals with F. nucleatum (ATCC No. 10953). Nature of the assay: MBC against F. nucleatum. Format: cell-based. As to conditions: Fusobacterium nucleatum, ATCC10953; kills at least 99.9% of initial inoculum. How it is done: as §4

One may read the MIC as the smallest concentration in the dilution series that meets the test's criterion for growth inhibition. Read a high MIC as a less susceptible organism. A word on the MBC: it is the lowest tested concentration that kills the bacteria rather than only halting them. Consider `CCCCCCCCCCCC(=O)N[C@@H](CCCNC(=N)N)C(=O)OCC` [LAE-CF, L-arginine, N^α-lauroyl ethyl ester], for which the MIC in assay [1] was 6.3 mg/L (≈ 16.4 µM); in assay [2], 6.3 mg/L (≈ 16.4 µM); in assay [3], 6.3 mg/L (≈ 16.4 µM); in assay [4], 12.5 mg/L (≈ 32.5 µM). For the same compound, in [5] (48 hours, 37° C., turbidity <0.05 absorbance at 660 nm), the “MIC Whole Saliva” value is reported as 50 ppm. Moreover, in assay [5] (Table 3, single agent), the “MIC (ppm) on total salivary bacteria, component alone” value came out at 50 ppm. Besides, the FIC in [5] (total salivary bacteria, FIC<1 synergistic, 1≤FIC≤2 additive, 2<FIC antagonistic) was determined as 1. In addition, the MBC in assay [6], in [7], in assay [8] and in assay [9] was 12.5 mg/L (≈ 32.5 µM) in each case.
